Our source for the IC50 values is US11866438B2, “Compositions, uses and methods for making them” (Pimera, Inc., priority 2015, dated 2024).

Molecules are shown by their SMILES. Like-named read-outs stand apart in the source and are kept apart here.

Holding throughout (format): cell-based
The test system of one experiment is MBA-MB-231. In words: Alamar Blue cell proliferation inhibition, MBA-MB-231 (MM231). The following applies: Alamar Blue assay, 96 h incubation. Here is the method:
(§1) Inhibitory activity on cell proliferation of representative compounds of the invention was determined using an Alamar Blue cell viability assay as described hereafter.
(§2) 3000 cancer cells in 100 uL of cell culture media were plated in each well of a 96-well clear bottom, black wall cell culture-pretreated plate.
(§3) The next day compounds are serially diluted (3-fold in cell culture media) across a 96-well polypropylene mother plate from row A to row F, to yield 6 concentrations (10 uM, 3.3 uM, 1.1 uM, 370 nM, 124 nM and 41 nM) for each test compound. Rows G and H contain only DMSO.
(§4) Once titrations are made, the media in plates with cells were disposed and 100 μL of drug dilutions are transferred to plates with cells. After a ninety six-hour incubation at 37° C., 10 uL of resazurin solution from Alamar Blue Cell Viability kit (Invitrogen, Carlsbad, CA) was added to the media and cells were incubated at 37° C. for three more hours. At the end of this incubation the production of resofurin was measured using Spectrmax M2 microplate reader (Molecular Devices, Sunnyvale, CA)
In general terms: Alamar Blue is a resazurin reagent that responds to reducing activity.

The test system of the next experiment is SK-BR-3. As to the kind of experiment: Alamar Blue cell proliferation inhibition, SK-BR-3. The following applies: Homo sapiens, Alamar Blue assay, 96 h incubation. The method, then:
as §1, §2, §3, §4

The next experiment has as its system NB-4-1. As to the kind of experiment: Alamar Blue cell proliferation inhibition, NB-4-1. The following applies: Alamar Blue assay, 96 h incubation, Table 3; read-out: cell proliferation inhibition, Cell line NB-4-1. The method, then: as §1, §2, §3, §4
For a further experiment, the system named is ML-2. In words: Alamar Blue cell proliferation inhibition, ML-2. The following applies: Homo sapiens, Alamar Blue assay, 96 h incubation, Table 3, read-out: cell proliferation inhibition, Cell line ML-2. Here is the method:
as §1, §2, §3, §4

The next experiment concerns SKM-1_1. In words: Alamar Blue cell proliferation inhibition, SKM-1_1. The following applies: Alamar Blue assay, 96 h incubation, Table 3; read-out: cell proliferation inhibition, Cell line SKM-1_1. The method, then: as §1, §2, §3, §4
The test system of the next experiment is P12-ICHIKAWA
As to the kind of experiment: Alamar Blue cell proliferation inhibition, P12-ICHIKAWA
The following applies: Homo sapiens, Alamar Blue assay, 96 h incubation, Table 3, read-out: cell proliferation inhibition, Cell line P12-ICHIKAWA
Here is the method:
as §1, §2, §3, §4

The test system of the next experiment is THP-1. As to the kind of experiment: Alamar Blue cell proliferation inhibition, THP-1. The following applies: Homo sapiens, Alamar Blue assay, 96 h incubation, Table 3, read-out: cell proliferation inhibition, Cell line THP-1. The method, then: as §1, §2, §3, §4
The next experiment has as its system KG-1. As to the kind of experiment: Alamar Blue cell proliferation inhibition, KG-1. The following applies: Homo sapiens, Alamar Blue assay, 96 h incubation, Table 3, read-out: cell proliferation inhibition, Cell line KG-1. The method, then: as §1, §2, §3, §4
Where [1] appears, read: Table 2, read-out: cell proliferation inhibition, Cell Line MBA-MB-231.
The mark [2] stands for this setting: Table 2, read-out: cell proliferation inhibition, Cell Line SK-BR-3.
The mark [3] stands for this setting: Table 3, read-out: cell proliferation inhibition, Cell line MM231.
The mark [4] stands for this setting: Table 3, read-out: cell proliferation inhibition, Cell line SK-BR-3.

On to `CN(C)CCNc1nc2cc(Cl)cnc2n2c1nc1ccccc12` [Compound 20], for which the IC50 in the experiment with MBA-MB-231 (setting [1]) and in the experiment with SK-BR-3 (setting [2]) was 1 to 5 µM in each case.

With `C[C@@H]1CN(c2nc3nccnc3n3c2nc2ccccc23)C[C@H](C)N1` [Compound 35], the IC50 in the experiment with MBA-MB-231 (setting [1]) and in the experiment on SK-BR-3 (setting [2]) was 1 to 5 µM in each case.

Take `C[C@@H]1CN(c2nc3cc(Cl)cnc3n3c2nc2ccccc23)C[C@H](C)N1` [Compound 21]: the IC50 with MBA-MB-231 (setting [1]) and with SK-BR-3 (setting [2]) was > 10 µM in each case.

In the case of `C[C@@H]1CN(C(=O)c2cc3cc4cc(Cl)ccc4nc3n3ccnc23)C[C@H](C)N1` [Compound 63], the IC50 in the experiment with MBA-MB-231 (setting [1]) and in the experiment on SK-BR-3 (setting [2]) was > 10 µM throughout.

With `CN(C)CCNc1nc2nccnc2n2c1nc1ccccc12` [Compound 34], the IC50 in the experiment with MBA-MB-231 (setting [1]) and with SK-BR-3 (setting [2]) was 1 to 5 µM each time.

On to `O=c1[nH]c2ccc(NCCN3CCCC3)nc2n2c1nc1ccccc12` [Compound 39], for which the IC50 with MBA-MB-231 (setting [3]) and with SK-BR-3 (setting [4]) was 1 to 5 µM throughout.

On to `CN1CCCN(c2nc3nccnc3n3c2nc2ccccc23)CC1` [Compound 36], for which the IC50 in the experiment on MBA-MB-231 (setting [1]) and with SK-BR-3 (setting [2]) was 1 to 5 µM in each case.

Consider `c1ccc2c(c1)nc1c(NCCN3CCCC3)nc3cncnc3n12` [Compound 26], for which the IC50 in the experiment with MBA-MB-231 (setting [1]) and with SK-BR-3 (setting [2]) was 1 to 5 µM each time.

`COc1ccc2nc3c(cc(C(=O)N4CCCN(C)CC4)c4nccn43)cc2c1` [Compound 56]: the IC50 in the experiment on MBA-MB-231 (setting [1]) and with SK-BR-3 (setting [2]) was > 10 µM in each case.

Consider `CN1CCCN(C(=O)c2cc3cc4cc(Cl)ccc4nc3n3ccnc23)CC1` [Compound 60], for which the IC50 in the experiment on MBA-MB-231 (setting [1]) and in the experiment with SK-BR-3 (setting [2]) was > 10 µM throughout.

Regarding `CN(C)CCNC(=O)c1cc2cc3cc(Cl)ccc3nc2n2ccnc12` [Compound 61], the IC50 in the experiment on MBA-MB-231 (setting [1]) and in the experiment on SK-BR-3 (setting [2]) was > 10 µM in each case.

As to `Clc1cnc2c(c1)nc(NCCN1CCCC1)c1nc3ccccc3n12` [Compound 19], the IC50 in the experiment with MBA-MB-231 (setting [1]) and in the experiment with SK-BR-3 (setting [2]) was 1 to 5 µM throughout.

As to `COc1ccc2nc3c(cc(C(=O)NCCN(C)C)c4nccn43)cc2c1` [Compound 57], the IC50 in the experiment on MBA-MB-231 (setting [1]) and with SK-BR-3 (setting [2]) was 1 to 5 µM throughout.

For `Cc1ccc2nc(NCCN(C)C)c3nc4ccccc4n3c2n1` [Compound 13], the IC50 in the experiment on MBA-MB-231 (setting [1]) and in the experiment with SK-BR-3 (setting [2]) was 1 to 5 µM in each case.

With `CN(C)CCNc1nc2cccnc2n2c1nc1ccccc12` [Compound 5], the IC50 in the experiment with NB-4-1, in the experiment with ML-2, in the experiment on SKM-1_1, with P12-ICHIKAWA, with THP-1 and with KG-1 was 1 to 5 µM each time.

Take `CN1CCCN(C(=O)c2cc3cc4ccccc4nc3n3ccnc23)CC1` [Compound 55]: the IC50 in the experiment with MBA-MB-231 (setting [3]) and with SK-BR-3 (setting [4]) was > 10 µM each time.

For the compound `CN1CCCN(c2nc3cncnc3n3c2nc2ccccc23)CC1` [Compound 29], the IC50 in the experiment on MBA-MB-231 (setting [1]) and in the experiment on SK-BR-3 (setting [2]) was 1 to 5 µM throughout.

With `CN(C)CCNc1nc2cncnc2n2c1nc1ccccc12` [Compound 27], the IC50 with MBA-MB-231 (setting [1]) and in the experiment on SK-BR-3 (setting [2]) was 1 to 5 µM in each case.

For the compound `CN1CCCN(c2nc3cc(Cl)cnc3n3c2nc2ccccc23)CC1` [Compound 22], the IC50 in the experiment on MBA-MB-231 (setting [1]) lay within 5 to 10 µM; with SK-BR-3 (setting [2]), 1 to 5 µM.

Consider `CN(C)CCNC(=O)c1cc2cc3ccccc3nc2n2ccnc12` [Compound 52], for which the IC50 is 1 to 5 µM in the experiment with NB-4-1; 1 to 5 µM with ML-2; < 1 µM with SKM-1_1; 1 to 5 µM with P12-ICHIKAWA; 1 to 5 µM in the experiment with THP-1; 1 to 5 µM with KG-1.

Take `Cc1ccc2nc(NCCN3CCCC3)c3nc4ccccc4n3c2n1` [Compound 12]: the IC50 with MBA-MB-231 (setting [1]) and in the experiment on SK-BR-3 (setting [2]) was 1 to 5 µM each time.

As for `Cc1ccc2nc(N3C[C@@H](C)N[C@@H](C)C3)c3nc4ccccc4n3c2n1` [Compound 14], the IC50 in the experiment with MBA-MB-231 (setting [1]) and in the experiment with SK-BR-3 (setting [2]) was 1 to 5 µM in each case.

In the case of `Cc1ccc2nc(N3CCCN(C)CC3)c3nc4ccccc4n3c2n1` [Compound 15], the IC50 with MBA-MB-231 (setting [1]) and in the experiment with SK-BR-3 (setting [2]) was 1 to 5 µM each time.

As for `C[C@@H]1CN(c2nc3cncnc3n3c2nc2ccccc23)C[C@H](C)N1` [Compound 28], the IC50 in the experiment on MBA-MB-231 (setting [1]) and with SK-BR-3 (setting [2]) was 1 to 5 µM each time.

On to `CN1CCCN(c2ccc3[nH]c(=O)c4nc5ccccc5n4c3n2)CC1` [Compound 41, 2-(4-Methyl-[1,4]diazepan-1-yl)-5H-1,5,7,11b-tetraaza-benzo[c]fluoren-6-one], for which the IC50 with SK-BR-3 (setting [4]) is < 1 µM.

On to `O=C(NCCN1CCCC1)c1cc2cc3cc(Cl)ccc3nc2n2ccnc12` [Compound 62], for which the IC50 in the experiment on MBA-MB-231 (setting [1]) and in the experiment with SK-BR-3 (setting [2]) was > 10 µM throughout.
